Where two headings read alike, the source gives them in different places.
Columns and labels:
RPE-1 cells = assay: p53/p21 immunoblot analysis in RPE-1 cells; format: cell-based, human; settings: RPE-1 (HPV negative), 40 hours
Description: Caski cells, which are derived from an HPV-16 infected cervical carcinoma and express HPV-16 E6 and E7, were used to determine whether these compounds interfere with HPV-16 E6 function. Inhibition of E6 should block its ability to promote the degradation of p53 thereby increasing the levels of p53. […] These compounds were also assayed in telomerase immortalized human retinal epithelial cells (RPE-1). […] If the elevation in p53 is dependent on the inhibition of E6 by these compounds, p53 should not increase in the RPE-1 cells.
20,000 cells per cm^2 were plated in 6-well dishes. Cells were incubated for 24 hours at which time fresh media and compound were added. After 40 hours, cells were harvested, washed with cold PBS, and lysed in RIPA buffer with protease inhibitor. Each sample was separated on a 12% SDS-page gel, transferred to Immobilon-P membrane (Millipore) and blotted for the p53 (DO-1, Santa Cruz), p21 (c-19, Santa Cruz), and actin (A2066, Sigma). Protein quantification was performed with the Fujifilm LAS-4000 Multifunctional Imaging System. The signal intensity was measured for each band on an immunoblot, normalized to the loading control, and the fold increase was determined in relation to the appropriate DMSO treated control. RNA was isolated from these cells using Trizol Reagent (Invitrogen 15596-026). cDNA was generated using the Improm-II Reverse Transcription System (Promega A3801). qPCR was performed as described in the protocol for SsoFast EvaGreen supermix (BioRad 172-5023) using an BioRad CFX96 real-time PCR machine. Melting curves for each reaction were obtained. Each sample was assayed in triplicate and every plate contained a 5-point cDNA dilution course to calculate amplification efficiency for each primer pair. The Pfaffl method was used to determine the change in transcript levels relative to the DMSO and normalized to GAPDH.

[1] = tested on: RPE-1, HeLa, C33a and HaCat cells; assay: SA-beta-gal senescence assay in other cell lines; format: cell-based, human; settings: 72 hours
Description: (§1) This was specific to Caski cells and was not observed in RPE-1, HeLa cells, or the HPV negative control cell lines C33a and HaCat (Figures S2A,B ). […] As observed in the viability assay, this occurred in both the HPV positive and negative cell lines. […] These cell lines were also assayed for apoptosis.
(§2) 12,000 cells per cm^2 were plated in 24-well dishes; after 24 hours, fresh media and compound were added. SA-beta gal staining was performed as described. Images were collected using bright field microscopy. At least four fields (~100 cells per field) were read for each treatment, and experiments were repeated 3 times. The percent SA-beta-gal positive cells was calculated for each data point.

[2] = tested on: HPV-18 positive HeLa cells; assay: cell viability (MTS, Celltiter 96 AQueous) HeLa; format: cell-based, human; settings: 48 to 96 hours, relative to DMSO
Description: HPV-18 positive HeLa cells and two additional control cell lines, C33a, a cell line derived from an HPV-negative human cervical cancer isolate, and HaCat, a spontaneously immortalized human keratinocyte cell line, were used to assess compounds for their impact on cell growth and viability. All cells were incubated for 48 to 96 hours with increasing doses of compound. Cell viability was measured by MTS based assay and % viability quantified relative to cells treated with DMSO. […] This is in agreement with the lack of specificity for HPV-dependent cells observed in the p53 western results.
For cell viability, 12,000 cells per cm^2 were plated in 96-well dishes 24 hours prior to drug addition. Fresh media and compound were added. Plates were read after 72-96 hours. Relative cell viability was assayed as directed in the Celltiter 96 AQueous one solution assay (Promega). For caspase activity, plates were assayed after 4, 8, 12, 24, or 48 hours as described for the Caspase-Glo 3/7 assay (Promega).

[3] = biological target: T1, interaction between HPV-16 E6 and E6AP (Human papillomavirus type 16, UniProt P03126); assay: biochemical; format: binding; settings: for Emax: read-out: Maximal Inhibition
T1 construct: made in house; host or cells: E. coli BL21
Description: To characterize potential E6 inhibitors, a robust in vitro assay was developed to measure the interaction between HPV-16 E6 and E6AP. […] The core 70 amino acids of the E6 binding region of E6AP (residues 371-440) was fused to bacterial alkaline phosphatase (BAP) in the MY101 vector [40]. […] Binding efficiency was determined from the intensity of BAP activated chemiluminescence remaining in each well.
Kinetic analysis was performed to characterize the protein-protein interaction inherent in this assay.
The collection of 72 available structural-lead compounds was tested in the filter-plate based in vitro E6-E6AP binding assay. […] Compounds that disrupted the Flag-BAP interaction with the same potency as the HPV-16 E6 and E6AP interaction were classified as non-specific and eliminated from further analysis. […]
Pre-Block - 96-well filter plates were prepared (0.2 µm BioTrace NT, Pall). 100µL of blocking buffer (100 mM Tris pH 8.0, 100 mM NaCl, 0.1% milk) was added per well. Plates were blocked for 1 hr at RT on an orbital shaker. Buffer was removed by vacuum filtration using a vacuum manifold. GST-E6 Bead addition – GST-E6 beads were prepared at 5µg/mL in GST-E6 bead buffer (100 mM Tris pH 8.0, 100 mM NaCl, 0.1% milk, 2.5 mM DTT). 100µL of GST-E6 bead mix was added per well and incubated for 1 hr at 4°C. Buffer was removed by vacuum filtration. […] 48 µL of each reagent was added per well. For drug assay, 2µL of compound was added to each well and mixed thoroughly. […] Plates were incubated for 1-3 hours at RT on an orbital shaker. Buffer was removed by vacuum filtration. Plates were washed on the vacuum manifold, first with 200 µL buffer (100 mM Tris pH 8.0, 100 mM NaCl, 1 mM DTT), and twice more with 100µL lysis buffer without DTT. Plates were cleared and dried with on the vacuum manifold. Assay – Immunostar assay reagent was prepared and equilibrated to RT prior to addition. 60 µL of Immunostar-AP assay reagent was added, the BAP activity was allowed to develop for 10 minutes and the plates were read on a Wallace Luminometer. BAP activity was measured as relative light units (RLU) on a luminometer using the Immunostar-AP substrate (BioRad).

Caski cells = assay: SA-beta-gal senescence assay in Caski cells; format: cell-based, human; settings: 72 hours, versus vehicle
Description: as §1, §2

[4] = full 7-point dose response, 0.5 µM to 333 µM, quadruplicate

T1 sequence (P03126 whole entry): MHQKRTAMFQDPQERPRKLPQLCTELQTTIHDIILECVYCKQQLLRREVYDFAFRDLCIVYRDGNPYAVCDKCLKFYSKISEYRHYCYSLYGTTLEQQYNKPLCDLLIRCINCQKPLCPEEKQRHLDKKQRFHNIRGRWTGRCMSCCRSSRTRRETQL

| Compound | p53 protein levels (RPE-1 cells) | SA-β-gal staining [1] | cell growth and viability [2] | IC50 [3] [µM] | inhibition of the interaction between E6 and E6AP ([3]; full 7-point binding assay, maximum) | IC50 [3, 4] | Emax [3] [%] | SA-β-gal staining (Caski cells) | p21 protein levels (RPE-1 cells) |
| --- | --- | --- | --- | --- | --- | --- | --- | --- | --- |
| O=c1cc(-c2ccc(O)c(O)c2)oc2cc(O)cc(O)c12 [luteolin, reference compound] | increase in p53 protein levels, but only at concentrations higher than was required to increase p53 and p21 levels in the Caski cells | no significant increase in β-gal staining | potent inhibitor of Caski, E6/E7 HFKs, and HeLa growth | 4.3 | up to 100% | low micromolar IC50 values | 99 | no significant increase in β-gal staining |  |
| COc1cccc(-c2cc(=O)c3cc(-c4nnn[nH]4)ccc3o2)c1 [CAF-24] | did not induce increased levels of p53 or p21 proteins | not observed | selectively inhibited growth | 2.8 |  | low micromolar IC50 values | 95 | increased more than two-fold | did not induce increased levels of p53 or p21 proteins |
